Measurements from US12390439B2, “Oral liquid formulation of methocarbamol” (Liqmeds Worldwide Limited, priority 2023, dated 2025).
In brackets after ≈: the same amount, converted by molar mass.

Assays:
Assay type in all cases: physicochemical
[1] = Drug-excipient compatibility study: related substance; conditions: higher temperature conditions
Method: Accurately weighed quantity of methocarbamol, and individual excipients were mixed as per ratio mentioned in the drug-excipient compatibility table. Mixtures were filled in glass vials, plugged using LDPE plugs which were manually punctured.
Filled glass vials were exposed to temperature and humidity conditions i.e. 60° C.±2° C., and 40° C.±2° C./75±5% RH for 4 weeks.

[2] = Photostability study of formulation B3
[3] = Solubility of methocarbamol in different vehicles at various pH conditions
Method: Solubility of Methocarbamol was carried out in different vehicles at various pH conditions, and the results are presented in Table 1.

[4] = API in Protected Condition (Control)

Stability of methocarbamol in aqueous phase [1]: probable instability
Assay (%) [2, 4]: 99.2%
Related Substances: Guaifenesin [2, 4]: 0.01%
Related Substances: Methocarbamol Isomer [2, 4]: 0.01%
Related Substances: Total Impurities [2, 4]: 0.02%
Assay (%) ([2]; API in open Exposed Condition): 99.8%
Related Substances: Guaifenesin ([2]; API in open Exposed Condition): 0.01%
Related Substances: Methocarbamol Isomer ([2]; API in open Exposed Condition): 0.02%
Related Substances: Total Impurities ([2]; API in open Exposed Condition): 0.03%
Assay (%) ([2]; API, Initial): 99.3%
Related Substances: Guaifenesin ([2]; API, Initial): 0.03%
Related Substances: Total Impurities ([2]; API, Initial): 0.03%
Description ([2]; Methocarbamol API (Batch no: A), Initial, open Exposed Condition and Protected Condition (Control)): White Bulky Powder odorless
Vol. req. to dissolve 1500 mg API ([3]; 0.1N HCl): 100.00 mL
solubility ([3]; 0.1N HCl, simulated gastric fluid): 15.5 mg/mL (≈ 64.1 mM)
Vol. req. to dissolve 1500 mg API ([3]; Purified water): 98.02 mL
Solubility (conclusion) ([3]; all pH media): high solubility
solubility ([3]; aqueous buffer, pH 4.5 acetate buffer): 16.9 mg/mL (≈ 69.9 mM)
solubility ([3]; aqueous buffer, pH 6.8 phosphate buffer): 14.1 mg/mL (≈ 58.4 mM)
solubility ([3]; aqueous buffer, pH 7.2 phosphate buffer): 13.6 mg/mL (≈ 56.5 mM)
Vol. req. to dissolve 1500 mg API ([3]; pH 4.5 acetate buffer): 88.96 mL
Vol. req. to dissolve 1500 mg API ([3]; pH 6.8 phosphate buffer): 106.38 mL
Vol. req. to dissolve 1500 mg API ([3]; pH 7.2 phosphate buffer): 109.96 mL
solubility ([3]; purified water, water): 15.3 mg/mL (≈ 63.4 mM)
Structure (SMILES): COc1ccccc1OCC(O)COC(N)=O (stereo not drawn) [methocarbamol]
